Experimental data as given in publication PMC10818416, “Design, Synthesis, and Evaluation of New Hybrid Derivatives of 5,6-Dihydro-4H-pyrrolo[3,2,1-ij]quinolin-2(1H)-one as Potential Dual Inhibitors of Blood Coagulation Factors Xa and XIa” (Molecules, 2024).
Read-outs that look alike come from different tables or passages of the source.

Experiments:
Test in all cases: chromogenic substrate hydrolysis, […] nm
Format in all cases: biochemical
[1] = molecular target: T1, factor XIa (FXIa) (Homo sapiens, UniProt P03951)
T1 construct: gene F11
T1 sequence (P03951 19-387): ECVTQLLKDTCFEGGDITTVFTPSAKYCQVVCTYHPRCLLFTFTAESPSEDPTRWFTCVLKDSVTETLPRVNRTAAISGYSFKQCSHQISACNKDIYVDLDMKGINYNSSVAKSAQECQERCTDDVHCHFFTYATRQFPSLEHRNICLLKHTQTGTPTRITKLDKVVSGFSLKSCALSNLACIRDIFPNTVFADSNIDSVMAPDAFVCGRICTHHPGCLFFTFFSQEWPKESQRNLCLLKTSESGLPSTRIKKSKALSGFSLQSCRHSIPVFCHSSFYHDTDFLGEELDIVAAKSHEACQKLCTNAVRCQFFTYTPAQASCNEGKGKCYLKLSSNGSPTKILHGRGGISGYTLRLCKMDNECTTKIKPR
T1 sequence (P03951 388-625): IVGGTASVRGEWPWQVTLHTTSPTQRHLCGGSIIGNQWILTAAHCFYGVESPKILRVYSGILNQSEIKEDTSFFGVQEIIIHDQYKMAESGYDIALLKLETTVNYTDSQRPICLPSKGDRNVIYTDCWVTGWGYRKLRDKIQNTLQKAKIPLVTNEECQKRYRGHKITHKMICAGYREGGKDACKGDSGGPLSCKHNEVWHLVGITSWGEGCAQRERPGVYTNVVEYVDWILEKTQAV

[2] = molecular target: T2, thrombin (Homo sapiens, UniProt P00734); settings: […] enzyme, […] Tos-Gly-Pro-Arg-pNA, pH […], up to […] DMSO
T2 construct: gene F2

[3] = molecular target: T3, factor Xa (FXa) (Homo sapiens, UniProt P00742)
T3 construct: gene F10
T3 sequence (P00742 41-179): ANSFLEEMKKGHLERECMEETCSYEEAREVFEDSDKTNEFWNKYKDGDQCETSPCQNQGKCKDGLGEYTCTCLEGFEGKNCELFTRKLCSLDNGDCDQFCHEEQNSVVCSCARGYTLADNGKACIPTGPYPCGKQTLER
T3 sequence (P00742 235-488): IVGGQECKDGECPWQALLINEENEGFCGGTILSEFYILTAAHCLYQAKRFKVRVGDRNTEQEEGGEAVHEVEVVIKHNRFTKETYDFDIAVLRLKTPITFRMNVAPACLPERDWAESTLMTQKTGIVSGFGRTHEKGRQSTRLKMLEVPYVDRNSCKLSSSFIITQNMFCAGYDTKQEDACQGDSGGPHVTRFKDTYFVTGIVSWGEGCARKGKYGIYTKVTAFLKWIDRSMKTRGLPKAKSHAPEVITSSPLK

[4] = molecular target: T1, factor XIa (FXIa); settings: […] enzyme, […] S2366, pH […], up to […] DMSO
[5] = molecular target: T3, factor Xa (FXa); settings: […] enzyme, […] S2765, pH […], up to […] DMSO

Structure (SMILES)	IC50 [1]	IC50 [3]	other results
COC(=O)C=C1SC(NN=C2C(=O)N3c4c2cc(I)cc4C(C)CC3(C)C)=NC1=O (mixture of isomers) [3e, Methyl 2-(2-(2-(8-iodo-4,4,6-trimethyl-2-oxo-5,6-dihydro-4H-pyrrolo[3,2,1-ij]quinolin-1(2H)-ylidene)hydrazineyl)-4-oxothiazol-5(4H)-ylidene)acetate]	–	–	IC50 ([1]; […] enzyme, […] S2366, pH […], up to […] DMSO): 8.03 ± 0.68 µM; Percent Inhibition of Thrombin at 30 μM [2]: 96%; IC50 ([3]; […] enzyme, […] S2765, pH […], up to […] DMSO): 4.23 ± 0.31 µM
COC(=O)C=C1SC(NN=C2C(=O)N3c4c2cc(C)cc4C(C)(c2ccc(Cl)cc2)CC3(C)C)=NC1=O (mixture of isomers) [3j, Methyl 2-(2-(2-(6-(4-chlorophenyl)-4,4,6,8-tetramethyl-2-oxo-5,6-dihydro-4H-pyrrolo[3,2,1-ij]quinolin-1(2H)-ylidene)hydrazineyl)-4-oxothiazol-5(4H)-ylidene)acetate]	–	–	Percent Inhibition at 30 μM / XIa [4]: 83%
COC(=O)/C=C1\SC(N/N=C2\C(=O)N3c4c2cc(OC)cc4C(C)CC3(C)C)=NC1=O (stereo not shown) [3b, Methyl (Z)-2-(2-(2-((Z)-8-methoxy-4,4,6-trimethyl-2-oxo-5,6-dihydro-4H-pyrrolo[3,2,1-ij]quinolin-1(2H)-ylidene)hydrazineyl)-4-oxothiazol-5(4H)-ylidene)acetate]	8.1 ± 0.2 µM	5.76 ± 1.08 µM	–
COC(=O)/C=C1\SC(N/N=C2\C(=O)N3c4c2cc(Cl)cc4C(C)CC3(C)C)=NC1=O (stereo not shown) [3c, Methyl (Z)-2-(2-(2-((Z)-8-chloro-4,4,6-trimethyl-2-oxo-5,6-dihydro-4H-pyrrolo[3,2,1-ij]quinolin-1(2H)-ylidene)hydrazineyl)-4-oxothiazol-5(4H)-ylidene)acetate]	12.2 ± 0.2 µM	2.84 ± 0.04 µM	–
COC(=O)/C=C1\SC(N/N=C2\C(=O)N3c4c2cc(Br)cc4C(C)CC3(C)C)=NC1=O (stereo not shown) [3d, Methyl (Z)-2-(2-(2-((Z)-8-bromo-4,4,6-trimethyl-2-oxo-5,6-dihydro-4H-pyrrolo[3,2,1-ij]quinolin-1(2H)-ylidene)hydrazineyl)-4-oxothiazol-5(4H)-ylidene)acetate]	–	–	Percent Inhibition at 30 μM / XIa [4]: 96%
COC(=O)/C=C1\SC(N/N=C2\C(=O)N3c4c(cc(C)c(C)c42)C(C)CC3(C)C)=NC1=O (stereo not shown) [3f, Methyl (Z)-2-(4-oxo-2-(2-((Z)-4,4,6,8,9-pentamethyl-2-oxo-5,6-dihydro-4H-pyrrolo[3,2,1-ij]quinolin-1(2H)-ylidene)hydrazineyl)thiazol-5(4H)-ylidene)acetate]	7.97 ± 0.63 µM	4.02 ± 0.6 µM	–
COC(=O)/C=C1\SC(N/N=C2\C(=O)N3c4c2cccc4C(C)(c2ccc(Cl)cc2)CC3(C)C)=NC1=O (stereo not shown) [3i, Methyl (Z)-2-(2-(2-((Z)-6-(4-chlorophenyl)-4,4,6-trimethyl-2-oxo-5,6-dihydro-4H-pyrrolo[3,2,1-ij]quinolin-1(2H)-ylidene)hydrazineyl)-4-oxothiazol-5(4H)-ylidene)acetate]	–	–	Percent Inhibition at 30 μM / Xa [5]: 87%
COC(=O)/C=C1\SC(N/N=C2\C(=O)N3c4c2cc(Cl)cc4C(C)(c2ccc(Cl)cc2)CC3(C)C)=NC1=O (stereo not shown) [3k, Methyl (Z)-2-(2-(2-((Z)-8-chloro-6-(4-chlorophenyl)-4,4,6-trimethyl-2-oxo-5,6-dihydro-4H-pyrrolo[3,2,1-ij]quinolin-1(2H)-ylidene)hydrazineyl)-4-oxothiazol-5(4H)-ylidene)acetate]	4.59 ± 0.54 µM	1.17 ± 0.26 µM	–
COC(=O)/C=C1\SC(N/N=C2\C(=O)N3c4c2cc(Br)cc4C(C)(c2ccc(Cl)cc2)CC3(C)C)=NC1=O (stereo not shown) [3l, Methyl (Z)-2-(2-(2-((Z)-8-bromo-6-(4-chlorophenyl)-4,4,6-trimethyl-2-oxo-5,6-dihydro-4H-pyrrolo[3,2,1-ij]quinolin-1(2H)-ylidene)hydrazineyl)-4-oxothiazol-5(4H)-ylidene)acetate]	3.61 ± 1.7 µM	1.74 ± 0.21 µM	–
COC(=O)/C=C1\SC(N/N=C2\C(=O)N3c4c2cccc4C(C)(c2ccccc2)CC3(C)C)=NC1=O (stereo not shown) [3n, Methyl (Z)-2-(4-oxo-2-(2-((Z)-4,4,6-trimethyl-2-oxo-6-phenyl-5,6-dihydro-4H-pyrrolo[3,2,1-ij]quinolin-1(2H)-ylidene)hydrazineyl)thiazol-5(4H)-ylidene)acetate]	11.5 ± 0.98 µM	1.86 ± 0.07 µM	–
COC(=O)/C=C1\SC(N/N=C2\C(=O)N3c4c2cc(Cl)cc4C(C)(c2ccccc2)CC3(C)C)=NC1=O (stereo not shown) [3o, Methyl (Z)-2-(2-(2-((Z)-8-chloro-4,4,6-trimethyl-2-oxo-6-phenyl-5,6-dihydro-4H-pyrrolo[3,2,1-ij]quinolin-1(2H)-ylidene)hydrazineyl)-4-oxothiazol-5(4H)-ylidene)acetate]	7.21 ± 0.22 µM	1.34 ± 0.16 µM	–
COC(=O)/C=C1\SC(N/N=C2\C(=O)N3c4c2cc(Br)cc4C(C)(c2ccccc2)CC3(C)C)=NC1=O (stereo not shown) [3p, Methyl (Z)-2-(2-(2-((Z)-8-bromo-4,4,6-trimethyl-2-oxo-6-phenyl-5,6-dihydro-4H-pyrrolo[3,2,1-ij]quinolin-1(2H)-ylidene)hydrazineyl)-4-oxothiazol-5(4H)-ylidene)acetate]	3.87 ± 0.33 µM	1.83 ± 0.05 µM	–
